Laboratory results as given in the kinase profiling compilation of Christmann-Franck et al. (2016).

Legend:
Assay in all cases: radiometric filter-binding kinase assay, Kinase HotSpot
Conditions in all cases: compound 0.5 µM; ATP 10 µM
ABL1 (human) = ABL1 (human) (UniProt P00519)
AURKC (human) = AURKC (human) (UniProt Q9UQB9)
AXL (human) = AXL (human) (UniProt P30530)
CAMK1G (human) = CAMK1G (human) (UniProt Q96NX5)
CAMK4 (human) = CAMK4 (human) (UniProt Q16566)
CDC42BPB (human) = CDC42BPB (human) (UniProt Q9Y5S2)
CDK4 CCND3 (human) = CDK4 CCND3 (human) (UniProt P30281+P11802)
CDK6 CCND1 (human) = CDK6 CCND1 (human) (UniProt Q00534+P24385)
CDK9 CCNT1 (human) = CDK9 CCNT1 (human) (UniProt P50750+O60563)
CHEK2 (human) = CHEK2 (human) (UniProt O96017)
CHUK (human) = CHUK (human) (UniProt O15111)
CLK2 (human) = CLK2 (human) (UniProt P49760)
CLK3 (human) = CLK3 (human) (UniProt P49761)
CSNK1D (human) = CSNK1D (human) (UniProt P48730)
CSNK1G3 (human) = CSNK1G3 (human) (UniProt Q9Y6M4)
DSTYK (human) = DSTYK (human) (UniProt Q6XUX3)
EGFR (human) = EGFR (human) (UniProt P00533)
EPHA5 (human) = EPHA5 (human) (UniProt P54756)
EPHA7 (human) = EPHA7 (human) (UniProt Q15375)
EPHA7 (human), sequence (Q15375 whole entry, looked up): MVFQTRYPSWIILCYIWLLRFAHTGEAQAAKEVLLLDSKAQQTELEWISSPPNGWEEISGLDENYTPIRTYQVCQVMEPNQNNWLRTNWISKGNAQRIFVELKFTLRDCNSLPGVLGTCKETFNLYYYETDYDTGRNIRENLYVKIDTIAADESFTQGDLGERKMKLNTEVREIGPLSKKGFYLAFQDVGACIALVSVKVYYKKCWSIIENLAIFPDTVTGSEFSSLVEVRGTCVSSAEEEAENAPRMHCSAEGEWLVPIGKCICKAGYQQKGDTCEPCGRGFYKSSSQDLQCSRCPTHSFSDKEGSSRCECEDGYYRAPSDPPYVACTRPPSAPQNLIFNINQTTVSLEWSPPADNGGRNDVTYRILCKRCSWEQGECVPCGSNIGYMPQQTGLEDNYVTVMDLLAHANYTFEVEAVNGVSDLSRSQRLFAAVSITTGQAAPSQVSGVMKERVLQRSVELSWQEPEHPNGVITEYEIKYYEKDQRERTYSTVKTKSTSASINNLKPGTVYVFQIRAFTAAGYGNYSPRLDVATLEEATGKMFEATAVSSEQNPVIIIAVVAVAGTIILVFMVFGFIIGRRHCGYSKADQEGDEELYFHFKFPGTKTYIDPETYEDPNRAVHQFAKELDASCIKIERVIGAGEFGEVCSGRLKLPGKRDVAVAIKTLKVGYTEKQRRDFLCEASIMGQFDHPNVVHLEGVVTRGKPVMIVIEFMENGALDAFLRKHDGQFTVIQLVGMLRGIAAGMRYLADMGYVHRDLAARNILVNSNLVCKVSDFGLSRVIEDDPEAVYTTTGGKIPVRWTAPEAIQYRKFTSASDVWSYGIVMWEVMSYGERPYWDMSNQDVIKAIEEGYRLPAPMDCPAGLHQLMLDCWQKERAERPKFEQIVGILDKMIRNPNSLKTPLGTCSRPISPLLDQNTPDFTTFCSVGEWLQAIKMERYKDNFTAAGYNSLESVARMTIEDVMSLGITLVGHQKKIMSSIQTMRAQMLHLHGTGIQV

FLT3 (human) = FLT3 (human) (UniProt P36888)
HIPK4 (human) = HIPK4 (human) (UniProt Q8NE63)
INSRR (human) = INSRR (human) (UniProt P14616)
INSRR (human), sequence (P14616 whole entry, looked up): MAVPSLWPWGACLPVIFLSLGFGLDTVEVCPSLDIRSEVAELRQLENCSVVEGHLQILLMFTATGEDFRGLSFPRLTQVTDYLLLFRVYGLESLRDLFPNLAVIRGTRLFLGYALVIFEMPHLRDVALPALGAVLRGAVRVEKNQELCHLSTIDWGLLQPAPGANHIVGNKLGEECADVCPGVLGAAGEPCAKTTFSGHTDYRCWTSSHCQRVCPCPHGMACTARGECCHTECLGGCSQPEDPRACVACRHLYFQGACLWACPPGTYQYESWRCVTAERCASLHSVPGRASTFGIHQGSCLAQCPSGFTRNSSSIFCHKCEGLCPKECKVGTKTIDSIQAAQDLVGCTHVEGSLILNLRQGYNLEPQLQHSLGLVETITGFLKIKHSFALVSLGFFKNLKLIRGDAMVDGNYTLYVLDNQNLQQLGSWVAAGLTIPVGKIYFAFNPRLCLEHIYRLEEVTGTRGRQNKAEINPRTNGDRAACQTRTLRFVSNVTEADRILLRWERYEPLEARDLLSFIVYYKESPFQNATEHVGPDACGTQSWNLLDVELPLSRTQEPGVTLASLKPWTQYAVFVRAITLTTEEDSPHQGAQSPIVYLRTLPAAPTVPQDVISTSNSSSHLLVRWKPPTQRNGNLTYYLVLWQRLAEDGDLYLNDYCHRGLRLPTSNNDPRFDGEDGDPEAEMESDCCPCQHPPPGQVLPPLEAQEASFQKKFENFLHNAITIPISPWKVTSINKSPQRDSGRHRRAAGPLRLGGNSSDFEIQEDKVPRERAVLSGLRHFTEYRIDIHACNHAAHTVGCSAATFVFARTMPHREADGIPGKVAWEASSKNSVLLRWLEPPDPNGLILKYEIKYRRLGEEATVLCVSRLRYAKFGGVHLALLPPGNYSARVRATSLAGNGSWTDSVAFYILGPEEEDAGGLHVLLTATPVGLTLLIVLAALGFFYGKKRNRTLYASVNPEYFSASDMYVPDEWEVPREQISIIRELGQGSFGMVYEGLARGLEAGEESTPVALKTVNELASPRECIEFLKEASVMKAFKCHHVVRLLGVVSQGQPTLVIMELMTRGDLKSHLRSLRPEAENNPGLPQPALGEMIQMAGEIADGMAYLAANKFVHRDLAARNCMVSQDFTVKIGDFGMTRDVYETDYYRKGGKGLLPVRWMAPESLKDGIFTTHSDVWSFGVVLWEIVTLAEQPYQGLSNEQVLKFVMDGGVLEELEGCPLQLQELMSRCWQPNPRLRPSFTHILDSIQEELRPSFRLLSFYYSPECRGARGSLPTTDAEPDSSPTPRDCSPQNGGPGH

JAK3 JH1 JH2 (human) = JAK3 JH1 JH2 (human) (UniProt P52333)
LTK (human) = LTK (human) (UniProt P29376)
MAP2K2 (human) = MAP2K2 (human) (UniProt P36507)
MAP3K11 (human) = MAP3K11 (human) (UniProt Q16584)
MAP3K3 (human) = MAP3K3 (human) (UniProt Q99759)
MAPK9 (human) = MAPK9 (human) (UniProt P45984)
MAPKAPK2 (human) = MAPKAPK2 (human) (UniProt P49137)
PDGFRA (human) = PDGFRA (human) (UniProt P16234)
PDGFRA (human), sequence (P16234 whole entry, looked up): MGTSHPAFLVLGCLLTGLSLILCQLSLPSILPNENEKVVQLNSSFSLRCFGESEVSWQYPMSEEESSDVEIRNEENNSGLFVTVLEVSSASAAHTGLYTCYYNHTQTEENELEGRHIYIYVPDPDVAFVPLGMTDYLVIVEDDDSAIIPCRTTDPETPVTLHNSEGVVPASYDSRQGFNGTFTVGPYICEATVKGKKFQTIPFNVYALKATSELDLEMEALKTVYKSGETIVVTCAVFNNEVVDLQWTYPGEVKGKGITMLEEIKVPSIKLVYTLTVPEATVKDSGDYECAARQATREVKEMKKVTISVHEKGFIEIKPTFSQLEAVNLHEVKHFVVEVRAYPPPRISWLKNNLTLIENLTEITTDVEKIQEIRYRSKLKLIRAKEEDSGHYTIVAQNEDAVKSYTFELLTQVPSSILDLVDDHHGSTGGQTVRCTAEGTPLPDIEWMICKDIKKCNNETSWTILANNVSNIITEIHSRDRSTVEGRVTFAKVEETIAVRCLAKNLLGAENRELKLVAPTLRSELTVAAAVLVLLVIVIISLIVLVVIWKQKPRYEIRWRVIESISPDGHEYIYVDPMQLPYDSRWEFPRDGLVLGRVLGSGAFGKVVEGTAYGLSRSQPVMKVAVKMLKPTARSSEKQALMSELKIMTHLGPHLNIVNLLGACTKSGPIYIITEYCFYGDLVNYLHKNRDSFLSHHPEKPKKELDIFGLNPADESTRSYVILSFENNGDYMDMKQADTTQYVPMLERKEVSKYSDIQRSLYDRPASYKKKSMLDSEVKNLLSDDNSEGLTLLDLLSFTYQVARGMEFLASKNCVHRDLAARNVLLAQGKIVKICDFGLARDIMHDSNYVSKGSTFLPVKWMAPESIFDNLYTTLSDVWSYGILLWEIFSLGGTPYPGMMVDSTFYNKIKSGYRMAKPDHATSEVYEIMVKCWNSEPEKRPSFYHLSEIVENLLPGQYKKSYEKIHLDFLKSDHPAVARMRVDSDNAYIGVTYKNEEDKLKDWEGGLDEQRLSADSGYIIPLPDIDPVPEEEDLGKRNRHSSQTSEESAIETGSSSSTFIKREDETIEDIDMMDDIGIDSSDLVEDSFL

PRKCD (human) = PRKCD (human) (UniProt Q05655)
PRKCD (human), sequence (Q05655 whole entry, looked up): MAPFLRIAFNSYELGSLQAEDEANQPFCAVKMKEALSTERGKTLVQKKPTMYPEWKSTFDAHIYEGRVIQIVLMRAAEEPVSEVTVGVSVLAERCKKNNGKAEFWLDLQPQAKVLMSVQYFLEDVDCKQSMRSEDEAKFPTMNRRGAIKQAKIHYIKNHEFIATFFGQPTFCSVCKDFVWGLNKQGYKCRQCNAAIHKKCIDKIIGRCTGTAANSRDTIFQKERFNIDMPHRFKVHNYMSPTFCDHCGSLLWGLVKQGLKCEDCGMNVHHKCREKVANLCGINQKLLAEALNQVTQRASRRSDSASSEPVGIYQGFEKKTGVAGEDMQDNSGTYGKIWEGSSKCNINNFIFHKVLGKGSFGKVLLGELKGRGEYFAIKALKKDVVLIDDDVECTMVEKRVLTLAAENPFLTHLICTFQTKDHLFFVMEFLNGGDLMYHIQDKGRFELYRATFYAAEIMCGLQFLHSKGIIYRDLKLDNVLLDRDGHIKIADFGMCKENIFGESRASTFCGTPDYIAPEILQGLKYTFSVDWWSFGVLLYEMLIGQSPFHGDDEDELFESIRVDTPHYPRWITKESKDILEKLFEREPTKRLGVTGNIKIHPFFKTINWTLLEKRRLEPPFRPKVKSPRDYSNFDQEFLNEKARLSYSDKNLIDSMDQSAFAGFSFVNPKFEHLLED

[1] = system: PRKCQ (human), Q04759 [P330L]
PRKD1 (human) = PRKD1 (human) (UniProt Q15139)
PRKG2 (human) = PRKG2 (human) (UniProt Q13237)
PRKX (human) = PRKX (human) (UniProt P51817)
SRPK3 (human) = SRPK3 (human) (UniProt Q9UPE1)
STK10 (human) = STK10 (human) (UniProt O94804)
STK11 (human) = STK11 (human) (UniProt Q15831)
TBK1 (human) = TBK1 (human) (UniProt Q9UHD2)
TGFBR1 (human) = TGFBR1 (human) (UniProt P36897)
TYRO3 (human) = TYRO3 (human) (UniProt Q06418)
YES1 (human) = YES1 (human) (UniProt P07947)

AXL (human), sequence (P30530 whole entry, looked up): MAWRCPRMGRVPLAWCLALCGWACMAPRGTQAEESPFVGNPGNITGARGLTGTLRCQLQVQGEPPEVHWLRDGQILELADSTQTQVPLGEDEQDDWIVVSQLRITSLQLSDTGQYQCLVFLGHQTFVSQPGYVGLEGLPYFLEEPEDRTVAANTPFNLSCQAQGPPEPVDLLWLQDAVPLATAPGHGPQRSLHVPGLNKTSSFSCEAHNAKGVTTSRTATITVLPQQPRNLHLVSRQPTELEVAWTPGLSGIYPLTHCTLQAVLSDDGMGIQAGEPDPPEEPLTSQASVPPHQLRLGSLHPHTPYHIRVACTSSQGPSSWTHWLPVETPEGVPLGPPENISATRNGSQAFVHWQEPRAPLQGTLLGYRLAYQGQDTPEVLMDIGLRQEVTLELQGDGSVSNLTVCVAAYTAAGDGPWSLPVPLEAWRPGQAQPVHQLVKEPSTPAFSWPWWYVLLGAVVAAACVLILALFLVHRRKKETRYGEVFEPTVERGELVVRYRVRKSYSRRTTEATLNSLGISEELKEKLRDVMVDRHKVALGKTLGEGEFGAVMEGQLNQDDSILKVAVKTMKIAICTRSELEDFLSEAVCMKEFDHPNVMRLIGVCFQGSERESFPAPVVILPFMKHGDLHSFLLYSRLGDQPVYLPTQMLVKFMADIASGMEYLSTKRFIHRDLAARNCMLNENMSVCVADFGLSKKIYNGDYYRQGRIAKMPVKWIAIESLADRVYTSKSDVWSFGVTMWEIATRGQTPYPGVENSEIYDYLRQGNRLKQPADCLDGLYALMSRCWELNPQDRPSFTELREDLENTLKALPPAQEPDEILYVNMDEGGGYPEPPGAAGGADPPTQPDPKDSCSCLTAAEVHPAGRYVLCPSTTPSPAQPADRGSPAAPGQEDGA

`COc1cc2ncnc(Nc3ccc(Oc4ccccc4)cc3)c2cc1OC` showed a residual activity (ABL1 (human)) of 81.8%, a residual activity (AURKC (human)) of 93.9% and a residual activity (AXL (human)) of 98.2%. For the same compound, the residual activity (CAMK1G (human)) was 101%, the residual activity (CAMK4 (human)) was 97.8% and the residual activity (CDC42BPB (human)) was 106%. It also gave a residual activity (CDK4 CCND3 (human)) of 98.4%, a residual activity (CDK6 CCND1 (human)) of 95.1% and a residual activity (CDK9 CCNT1 (human)) of 86.7%. For the same compound, the residual activity (CHEK2 (human)) was 29.6%, the residual activity (CHUK (human)) was 101% and the residual activity (CLK2 (human)) was 103%. The residual activity (CLK3 (human)) was 101%, the residual activity (CSNK1D (human)) was 106% and the residual activity (CSNK1G3 (human)) was 99.4%. For the same compound, the residual activity (DSTYK (human)) was 91.6%, the residual activity (EGFR (human)) was 31.6% and the residual activity (EPHA5 (human)) was 85.3%. It also gave a residual activity (EPHA7 (human)) of 100%, a residual activity (FLT3 (human)) of 3.23% and a residual activity (HIPK4 (human)) of 91.8%. It also gave a residual activity (INSRR (human)) of 102%, a residual activity (JAK3 JH1 JH2 (human)) of 93.1% and a residual activity (LTK (human)) of 98.3%. The residual activity (MAP2K2 (human)) was 105%, the residual activity (MAP3K11 (human)) was 68.5% and the residual activity (MAP3K3 (human)) was 94.5%. The residual activity (MAPK9 (human)) was 99%, the residual activity (MAPKAPK2 (human)) was 103% and the residual activity (PDGFRA (human)) was 88.8%. For the same compound, the residual activity (PRKCD (human)) was 96.8%, the residual activity [1] was 124% and the residual activity (PRKD1 (human)) was 95.6%. It also gave a residual activity (PRKG2 (human)) of 98.3%, a residual activity (PRKX (human)) of 95.2% and a residual activity (SRPK3 (human)) of 94.8%. It also gave a residual activity (STK10 (human)) of 74%, a residual activity (STK11 (human)) of 93.6% and a residual activity (TBK1 (human)) of 93.7%. It also gave a residual activity (TGFBR1 (human)) of 97.1%, a residual activity (TYRO3 (human)) of 83.4% and a residual activity (YES1 (human)) of 7.96%.

Work on `Fc1ccc(-c2nc3n(c2-c2ccncc2)CCS3)cc1` yielded a residual activity (ABL1 (human)) of 102%, a residual activity (AURKC (human)) of 102% and a residual activity (AXL (human)) of 95.8%. For the same compound, the residual activity (CAMK1G (human)) was 95.2%, the residual activity (CAMK4 (human)) was 99.8% and the residual activity (CDC42BPB (human)) was 115%. It also gave a residual activity (CDK4 CCND3 (human)) of 94.9%, a residual activity (CDK6 CCND1 (human)) of 97% and a residual activity (CDK9 CCNT1 (human)) of 94.9%. The residual activity (CHEK2 (human)) was 97.7%, the residual activity (CHUK (human)) was 104% and the residual activity (CLK2 (human)) was 105%. It also gave a residual activity (CLK3 (human)) of 94.4%, a residual activity (CSNK1D (human)) of 6.99% and a residual activity (CSNK1G3 (human)) of 97.9%. For the same compound, the residual activity (DSTYK (human)) was 105%, the residual activity (EGFR (human)) was 90.7% and the residual activity (EPHA5 (human)) was 89.7%. It also gave a residual activity (EPHA7 (human)) of 76.3%, a residual activity (FLT3 (human)) of 94.7% and a residual activity (HIPK4 (human)) of 89.7%. It also gave a residual activity (INSRR (human)) of 102%, a residual activity (JAK3 JH1 JH2 (human)) of 94.3% and a residual activity (LTK (human)) of 102%. For the same compound, the residual activity (MAP2K2 (human)) was 106%, the residual activity (MAP3K11 (human)) was 95.7% and the residual activity (MAP3K3 (human)) was 100%. For the same compound, the residual activity (MAPK9 (human)) was 90.6%, the residual activity (MAPKAPK2 (human)) was 101% and the residual activity (PDGFRA (human)) was 98%. For the same compound, the residual activity (PRKCD (human)) was 99.1%, the residual activity [1] was 123% and the residual activity (PRKD1 (human)) was 90.2%. The residual activity (PRKG2 (human)) was 93.9%, the residual activity (PRKX (human)) was 97.6% and the residual activity (SRPK3 (human)) was 98.5%. It also gave a residual activity (STK10 (human)) of 94.9%, a residual activity (STK11 (human)) of 93.8% and a residual activity (TBK1 (human)) of 90.6%. For the same compound, the residual activity (TGFBR1 (human)) was 106%, the residual activity (TYRO3 (human)) was 104% and the residual activity (YES1 (human)) was 99.4%.

For `O=C(c1cc2cc(O)ccc2[nH]1)c1cc2cc(O)ccc2[nH]1`, the residual activity (ABL1 (human)) was 27.8%, the residual activity (AURKC (human)) was 83.2% and the residual activity (AXL (human)) was 90.1%. For the same compound, the residual activity (CAMK1G (human)) was 101%, the residual activity (CAMK4 (human)) was 96.5% and the residual activity (CDC42BPB (human)) was 96.2%. The residual activity (CDK4 CCND3 (human)) was 105%, the residual activity (CDK6 CCND1 (human)) was 81.2% and the residual activity (CDK9 CCNT1 (human)) was 76.6%. The residual activity (CHEK2 (human)) was 80.1%, the residual activity (CHUK (human)) was 103% and the residual activity (CLK2 (human)) was 105%. It also gave a residual activity (CLK3 (human)) of 24.8%, a residual activity (CSNK1D (human)) of 92.5% and a residual activity (CSNK1G3 (human)) of 77.2%. For the same compound, the residual activity (DSTYK (human)) was 95.5%, the residual activity (EGFR (human)) was 97.6% and the residual activity (EPHA5 (human)) was 100%. For the same compound, the residual activity (EPHA7 (human)) was 101%, the residual activity (FLT3 (human)) was 3.53% and the residual activity (HIPK4 (human)) was 99.8%. For the same compound, the residual activity (INSRR (human)) was 97.1%, the residual activity (JAK3 JH1 JH2 (human)) was 94.5% and the residual activity (LTK (human)) was 91.6%. For the same compound, the residual activity (MAP2K2 (human)) was 98.8%, the residual activity (MAP3K11 (human)) was 24.5% and the residual activity (MAP3K3 (human)) was 96%. For the same compound, the residual activity (MAPK9 (human)) was 116%, the residual activity (MAPKAPK2 (human)) was 103% and the residual activity (PDGFRA (human)) was 65.3%. It also gave a residual activity (PRKCD (human)) of 89.7%, a residual activity [1] of 92.1% and a residual activity (PRKD1 (human)) of 58.5%. The residual activity (PRKG2 (human)) was 80.6%, the residual activity (PRKX (human)) was 94.5% and the residual activity (SRPK3 (human)) was 99.4%. For the same compound, the residual activity (STK10 (human)) was 70.3%, the residual activity (STK11 (human)) was 101% and the residual activity (TBK1 (human)) was 35%. The residual activity (TGFBR1 (human)) was 93.4%, the residual activity (TYRO3 (human)) was 76.4% and the residual activity (YES1 (human)) was 18.8%.

Compound `O=C1NC(=O)c2c1c1c3ccccc3[nH]c1n1cncc21` has a residual activity (ABL1 (human)) of 85.6%, a residual activity (AURKC (human)) of 47.6% and a residual activity (AXL (human)) of 91.7%. It also gave a residual activity (CAMK1G (human)) of 94.7%, a residual activity (CAMK4 (human)) of 89.8% and a residual activity (CDC42BPB (human)) of 94.8%. For the same compound, the residual activity (CDK4 CCND3 (human)) was 87.1%, the residual activity (CDK6 CCND1 (human)) was 65.7% and the residual activity (CDK9 CCNT1 (human)) was 82.9%. It also gave a residual activity (CHEK2 (human)) of 21.2%, a residual activity (CHUK (human)) of 100% and a residual activity (CLK2 (human)) of 94.7%. The residual activity (CLK3 (human)) was 48.2%, the residual activity (CSNK1D (human)) was 17.2% and the residual activity (CSNK1G3 (human)) was 87%. It also gave a residual activity (DSTYK (human)) of 106%, a residual activity (EGFR (human)) of 92.7% and a residual activity (EPHA5 (human)) of 92%. The residual activity (EPHA7 (human)) was 78.8%, the residual activity (FLT3 (human)) was 9.86% and the residual activity (HIPK4 (human)) was 98.5%. It also gave a residual activity (INSRR (human)) of 20.7%, a residual activity (JAK3 JH1 JH2 (human)) of 140% and a residual activity (LTK (human)) of 80.8%. The residual activity (MAP2K2 (human)) was 85.9%, the residual activity (MAP3K11 (human)) was 57.5% and the residual activity (MAP3K3 (human)) was 86.9%. It also gave a residual activity (MAPK9 (human)) of 65.3%, a residual activity (MAPKAPK2 (human)) of 98.9% and a residual activity (PDGFRA (human)) of 84.4%. The residual activity (PRKCD (human)) was 65%, the residual activity [1] was 88.9% and the residual activity (PRKD1 (human)) was 61.4%. It also gave a residual activity (PRKG2 (human)) of 64.1%, a residual activity (PRKX (human)) of 87.8% and a residual activity (SRPK3 (human)) of 75.7%. The residual activity (STK10 (human)) was 69%, the residual activity (STK11 (human)) was 45.2% and the residual activity (TBK1 (human)) was 81.9%. It also gave a residual activity (TGFBR1 (human)) of 96.3%, a residual activity (TYRO3 (human)) of 88.8% and a residual activity (YES1 (human)) of 79.9%.
